The subject of data set [1] is TRP-2-specific T cells (splenocytes). Description: Avidity of TRP-2-specific T cells (splenocyte proliferation, ATPlite). The format is in vivo, BL6 mice. The note with it: after two immunizations. As to the method:
FIG. 22: Vaccination with liposomal-encapsulated TRP-2 plus CpG-PTO. The vaccination with liposomal-encapsulated TRP-2 plus CpG-PTO generates high avidity T cells. BL6 mice were vaccinated with 10 μg liposomal or 100 μg free TRP-2 plus 5 nmol free CpG ODN at weekly intervals up to three times. Lymphocytes were isolated from spleen (A) and lymph node (LN) (B) one week after last immunization and an IFNγ capture assay was performed as described. C, Avidity of T cells after vaccination with liposomal and free TRP-2 plus CpG ODN. One week after the last immunization splenocytes were nylon-wool enriched and cultured for 5 days in vitro in the presence of high dose (10^−6 mol/l) or low dose TRP-2 (10^−9 mol/l) or control peptide […] (10^−6 mol/l) with low dose IL2 (30 U/ml). Proliferation was estimated by a luminescence assay-based detection system measuring ATP content. Proliferation of splenocytes in the presence of anti-TCR plus anti-CD28 mAb was set to 100%. Representative data from one of two similar experiments are shown.
Finally, the avidity of TRP-2-specific CTLs in animals immunized with liposomal or free TRP-2, respectively (FIG. 21) was compared. […] In parallel to the IFNγ secretion assay nylon-wool column enriched splenocytes were cultured with high (10^−6 mol/l) and low dose TRP-2 (10^−9 mol/l), for 5 days and cell proliferation was determined using the ATPlite™-M system. […]
A general note: Cellular ATP, detected with luciferase, serves as a proxy for viable cell number.

Data set [2] deals with B16.F1 and TRP-2 pulsed EL4. Description: CTL cytotoxicity against TRP-2 presenting cells after immunization. It is filed as in vivo, mouse. The note with it: free versus liposomal. As to the method:
In another set of experiments antigen-specificity of cytotoxic T lymphocytes after liposomal vaccination (FIG. 20) was analyzed. Mice were immunized with AVE3-encapsulated or free TRP-2 and CpG-PTO as described above. Cells prepared from lymph nodes were then tested for cytotoxicity using as targets the mouse melanoma cell line B16.F1 know to present TRP-2 in the context of H-2K^b, TRP-2 pulsed EL4 cells, OVA peptide-pulsed EL4 cells, unpulsed EL4 cells, and YAC-1 cells to exclude a potential NK cell activity. […] As described above 10-fold higher amounts of free TRP-2 and 4-fold higher amounts of CpG-PTO were necessary to induce the same CTL response.

Another data set concerns murine B cells. Put plainly: Induction of B cell proliferation (CFSE). The format is cell-based. To be noted: ODN 5 to 200 nmol/l, free or AVE3-encapsulated. The source says:
FIG. 12: Comparison of the biological activity of CpG-PTO and CpG-PDO. Cells were labeled with CFSE before being stimulated for 48 hrs with 0 to 0.2 μmol/l end concentration of ODNs in saline or liposomal. (black diamonds) CpG-PTO in saline; (grey diamonds) CpG-PDO in saline; (black squares) liposomal CpG-PTO; (grey squares) liposomal CpG-PDO. Dead cells were excluded by propidium iodide staining.
CpG oligonucleotides have been described to induce B cell proliferation. The effects of free or encapsulated CpG phosphorothioate oligonucleotides (CpG-PTO) (see example 6) on proliferation of murine B cells (FIG. 11A) were compared. […] Induction of B cell proliferation was dependent on the concentration of applied ODN with strong B cell proliferation observed between 50 to 200 nmol/l encapsulated ODN. Similar values were obtained for CpG-ODN encapsulated at different concentrations (between 4.6 μg/μmol lipid to 93.5 μg/μmol lipid). No induction of B cell proliferation was observed using free or encapsulated non-CpG-ODN (FIG. 11B).
CpG phosphorothioate (CpG-PTO) or CpG phosphodiester (CpG-PDO) oligonucleotides (see example 6) were analyzed for the induction of B cell proliferation in free or AVE3-encapsulated form using ODN concentrations between 5 to 200 nmol/l. […]

Turning to “free TRP-2: antigenic peptide TRP-2 (SVYDFFVWL), not encapsulated”, the “avidity of T cells, liposomal vs. free TRP-2” value in data set [1] was “more polyclonal response of splenocytes consisting of low and high avidity T cells”. Besides, in data set [2], the “higher amounts necessary to induce the same CTL response” value is 10 fold.
With “non-CpG-ODN: non-CpG-1982-PTO, 5′-TCCAGGACTTCTCTCAGGT-3′, free (DNA, all phosphorothioate, methylation of C not given here)”, in the data set with murine B cells, the “induction of B cell proliferation” value was “No induction”.

These data come from patent publication US20070148220A1, “Liposomes and liposomal compositions for vaccination and drug delivery” (priority 2003, published 2007).
